Data: ChEMBL document CHEMBL1201862, “PubChem BioAssay data set” (2004)
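Interpolation was linear, between the two tested concentrations surrounding the appropriate level; five concentrations were tested over 48 hours in 96-well plates. GI50: concentration for 50% inhibition of growth.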 Activity calls are given as the source filed them. Cut-off read from the data, not from the text of the source: active = GI50 up to about 1.1 µM and inactive = higher.

Key:
Assay in all cases: NCI anticancer screen, dose series, 48 h
[1] = system: 786-0
[2] = system: A498
[3] = system: A549
[4] = system: ACHN
[5] = system: BT-549
[6] = system: CAKI-1
[7] = system: CCRF-CEM
[8] = system: COLO 205
[9] = system: DU-145
[10] = system: EKVX
[11] = system: HCC 2998
[12] = system: HCT-116
[13] = system: HCT-15
[14] = system: HL-60
[15] = system: HOP-62
[16] = system: HOP-92
[17] = system: HT-29
[18] = system: Hs-578T
[19] = system: IGROV-1
[20] = system: K562
[21] = system: KM12
[22] = system: LOX IMVI
[23] = system: M14
[24] = system: MCF7
[25] = system: MDA-MB-435
[26] = system: MDA-N
[27] = system: Malme-3M
[28] = system: NCI-H226
[29] = system: NCI-H23
[30] = system: NCI-H460
[31] = system: NCI-H522
[32] = system: NCI/ADR-RES
[33] = system: OVCAR-3
[34] = system: OVCAR-4
[35] = system: OVCAR-5
[36] = system: PC-3
[37] = system: RPMI-8226
[38] = system: RXF 393
[39] = system: SF-268
[40] = system: SF-295
[41] = system: SF-539
[42] = system: SK-MEL-28
[43] = system: SK-MEL-2
[44] = system: SK-MEL-5
[45] = system: SK-OV-3
[46] = system: SN12C
[47] = system: SNB-19
[48] = system: SR
[49] = system: SW-620
[50] = system: T47D
[51] = system: TK-10
[52] = system: U-251
[53] = system: UACC-257
[54] = system: UACC-62
[55] = system: UO-31
[56] = system: MDA-MB-231
[57] = system: OVCAR-8
[58] = system: SNB-75
[59] = system: MOLT-4

CC(=O)N[C@@H](Cc1ccc(O)cn1)C(=O)NCc1cccc(F)c1
GI50 [1]: > 100 µM (inactive) | GI50 [2]: > 100 µM (inactive) | GI50 [3]: > 100 µM (inactive) | GI50 [4]: > 100 µM (inactive) | GI50 [5]: > 100 µM (inactive) | GI50 [6]: > 100 µM (inactive) | GI50 [7]: > 100 µM (inactive) | GI50 [8]: > 100 µM (inactive) | GI50 [9]: > 100 µM (inactive) | GI50 [10]: > 100 µM (inactive) | GI50 [11]: > 100 µM (inactive) | GI50 [12]: > 100 µM (inactive) | GI50 [13]: > 100 µM | GI50 [14]: > 100 µM (inactive) | GI50 [15]: > 100 µM (inactive) | GI50 [16]: 30.9 µM (inactive) | GI50 [17]: > 100 µM (inactive) | GI50 [18]: > 100 µM (inactive) | GI50 [19]: > 100 µM (inactive) | GI50 [20]: > 100 µM (inactive) | GI50 [21]: > 100 µM (inactive) | GI50 [22]: > 100 µM (inactive) | GI50 [23]: > 100 µM (inactive) | GI50 [24]: > 100 µM (inactive) | GI50 [25]: > 100 µM (inactive) | GI50 [26]: > 100 µM (inactive) | GI50 [27]: > 100 µM (inactive) | GI50 [28]: > 100 µM (inactive) | GI50 [29]: > 100 µM (inactive) | GI50 [30]: > 100 µM (inactive) | GI50 [31]: > 100 µM (inactive) | GI50 [32]: > 100 µM (inactive) | GI50 [33]: > 100 µM (inactive) | GI50 [34]: > 100 µM (inactive) | GI50 [35]: > 100 µM (inactive) | GI50 [36]: > 100 µM (inactive) | GI50 [37]: > 100 µM (inactive) | GI50 [38]: > 100 µM (inactive) | GI50 [39]: > 100 µM (inactive) | GI50 [40]: > 100 µM (inactive) | GI50 [41]: > 100 µM (inactive) | GI50 [42]: > 100 µM (inactive) | GI50 [43]: > 100 µM (inactive) | GI50 [44]: > 100 µM (inactive) | GI50 [45]: > 100 µM (inactive) | GI50 [46]: > 100 µM (inactive) | GI50 [47]: > 100 µM (inactive) | GI50 [48]: 59.7 µM (inactive) | GI50 [49]: > 100 µM (inactive) | GI50 [50]: > 100 µM (inactive) | GI50 [51]: > 100 µM (inactive) | GI50 [52]: > 100 µM (inactive) | GI50 [53]: > 100 µM (inactive) | GI50 [54]: > 100 µM (inactive) | GI50 [55]: > 100 µM (inactive)

COc1cc(/C=C2\CCC(C)/C(=C\c3cc(OC)c(OC)c(OC)c3)C2=O)cc(OC)c1OC (stereo not drawn)
GI50 [1]: 3.75 µM (inactive) | GI50 [2]: 1.76 µM (inactive) | GI50 [3]: 2.79 µM (inactive) | GI50 [4]: 3.02 µM (inactive) | GI50 [5]: 1.02 µM (active) | GI50 [6]: 2.99 µM (inactive) | GI50 [7]: 1.29 µM (inactive) | GI50 [8]: 2.48 µM (inactive) | GI50 [9]: 7.66 µM (inactive) | GI50 [10]: 3.21 µM (inactive) | GI50 [12]: 3.32 µM (inactive) | GI50 [13]: 1.99 µM | GI50 [15]: 3.63 µM (inactive) | GI50 [16]: > 100 µM (inactive) | GI50 [17]: 3.21 µM (inactive) | GI50 [18]: 8.81 µM (inactive) | GI50 [19]: 2.38 µM (inactive) | GI50 [20]: 2.69 µM (inactive) | GI50 [21]: 2.61 µM (inactive) | GI50 [22]: 3.27 µM (inactive) | GI50 [23]: 1.96 µM (inactive) | GI50 [24]: 2.89 µM (inactive) | GI50 [56]: 8.41 µM (inactive) | GI50 [25]: 3.03 µM (inactive) | GI50 [26]: 2.96 µM (inactive) | GI50 [35]: 3.38 µM (inactive) | GI50 [57]: 2.4 µM (inactive) | GI50 [36]: 2.7 µM (inactive) | GI50 [37]: 0.286 µM (active) | GI50 [38]: 2.55 µM (inactive) | GI50 [39]: 3.37 µM (inactive) | GI50 [42]: 4.35 µM (inactive) | GI50 [43]: 1.67 µM (inactive) | GI50 [44]: 2.21 µM (inactive) | GI50 [45]: 10.5 µM (inactive) | GI50 [46]: 3.56 µM (inactive) | GI50 [47]: 4.51 µM (inactive) | GI50 [58]: 18.2 µM (inactive) | GI50 [49]: 3.8 µM (inactive) | GI50 [50]: 8.95 µM (inactive) | GI50 [51]: 2.63 µM (inactive) | GI50 [52]: 4.97 µM (inactive) | GI50 [53]: 3.78 µM (inactive) | GI50 [54]: 1.82 µM (inactive) | GI50 [55]: 3.99 µM (inactive)

COc1cc(/C=C2\N=C(c3ccccc3)N(c3cc4cc(Sc5ccccc5)ccc4[nH]3)C2=O)cc(OC)c1OC
GI50 [1]: 12.6 µM (inactive) | GI50 [2]: 13.8 µM (inactive) | GI50 [3]: 19.5 µM (inactive) | GI50 [4]: 18.4 µM (inactive) | GI50 [5]: 9.42 µM (inactive) | GI50 [6]: 17.3 µM (inactive) | GI50 [7]: 16.9 µM (inactive) | GI50 [8]: 11.3 µM (inactive) | GI50 [9]: 15.2 µM (inactive) | GI50 [10]: 17.5 µM (inactive) | GI50 [11]: 12.7 µM (inactive) | GI50 [12]: 11.7 µM (inactive) | GI50 [13]: 14.4 µM | GI50 [14]: 14.6 µM (inactive) | GI50 [15]: 15 µM (inactive) | GI50 [16]: 6.92 µM (inactive) | GI50 [17]: 16.1 µM (inactive) | GI50 [18]: 2.72 µM (inactive) | GI50 [19]: 15.5 µM (inactive) | GI50 [20]: 4.25 µM (inactive) | GI50 [21]: 15 µM (inactive) | GI50 [22]: 11.3 µM (inactive) | GI50 [23]: 11.4 µM (inactive) | GI50 [24]: 11.5 µM (inactive) | GI50 [25]: 3.84 µM (inactive) | GI50 [26]: 3.72 µM (inactive) | GI50 [59]: 10.1 µM (inactive) | GI50 [27]: 2.96 µM (inactive) | GI50 [28]: 12.2 µM (inactive) | GI50 [29]: 25.5 µM (inactive) | GI50 [30]: 14.3 µM (inactive) | GI50 [31]: 2.96 µM (inactive) | GI50 [32]: 20.2 µM (inactive) | GI50 [33]: 17.8 µM (inactive) | GI50 [34]: 26 µM (inactive) | GI50 [35]: 25.9 µM (inactive) | GI50 [57]: 12.6 µM (inactive) | GI50 [38]: 10.1 µM (inactive) | GI50 [39]: 2.16 µM (inactive) | GI50 [40]: 20.7 µM (inactive) | GI50 [41]: 12.3 µM (inactive) | GI50 [42]: 12.9 µM (inactive) | GI50 [44]: 10.6 µM (inactive) | GI50 [45]: 21.6 µM (inactive) | GI50 [46]: 15.2 µM (inactive) | GI50 [47]: 23.2 µM (inactive) | GI50 [58]: 12.7 µM (inactive) | GI50 [48]: 2.18 µM (inactive) | GI50 [49]: 19.2 µM (inactive) | GI50 [50]: 8.17 µM (inactive) | GI50 [53]: 14.8 µM (inactive) | GI50 [54]: 10.1 µM (inactive) | GI50 [55]: 14.3 µM (inactive)
